From article PMC8811960, “A Novel 2-Carbon-Linked Dimeric Artemisinin With Potent Antileukemic Activity and Favorable Pharmacology” (Frontiers in Oncology, 2022) come the findings set out here.

SMILES strings stand for the structures. Read-outs that look alike come from different tables or passages of the source.

The subject of one data set is 10 human AML cell lines. As to the kind of experiment: alamarBlue growth inhibition, panel of 10 human AML cell lines. Format: cell-based. As for the experimental part:
(§1) Cytotoxicity was assessed using alamarBlue assays (Life Technologies, Grand Island, NY) following manufacturer’s guidelines. Cell death was verified by Annexin V/7-aminoactinomycin D (7AAD) staining (BioLegend, San Diego, CA) per manufacturer’s guidelines.
Cell lines with adverse risk cytogenetic and molecular features, e.g. MLL rearrangements (ML2, MOLM14, MV4;11, THP1), FLT3-ITD (MOLM14, MV4;11), TP53 mutations (KG1a, ML2, THP1, U937), and NRAS/KRAS mutations (ML2, THP1), were among those exquisitely sensitive to ART631, with IC50s < 50 nM. The K562 cell line was the only exception, as it was resistant to all 3 of these ARTs. Based on this in vitro activity data combined with the drug stability data described below, ART631 was prioritized over ART576 for further in vitro and in vivo antileukemic efficacy experiments here ( Table 2 ).

For another data set, the system named is HL60. As to the kind of experiment: alamarBlue growth inhibition, HL60. The class given is cell-based. As to conditions: Homo sapiens, HL-60, HL60, 48h, mean of 2 independent assays ± SD. As for the experimental part: as §1
In general terms: The colour change of resazurin is a common sign of viable cells or microbes.

Data set [1] is described as follows: Maximum tolerated dose in NRG mice. Format: in vivo. As for the experimental part:
Mice were dosed orally with ART631 at empirically determined maximally tolerated doses (MTDs) of 75 mg/kg ART631 as a single dose alone or 15 mg/kg as a multiple dose regimen (once daily x5), either alone or in combination with SOR (30 mg/kg/d) and VEN (150 mg/kg/d), for side-by-side comparison to the ART838, SOR and VEN combination evaluated previously ([20]). ART631, SOR, and VEN were mixed in vehicle and given as a single administration. Mice (n = 3/time point) were euthanized at 0.5, 1, 1.5, 2, 3, 4, 6, 8 and 12 h after dosing. ART631 was quantified in plasma as described below. Pharmacokinetic parameters were calculated from mean concentration-time data using non-compartmental methods in Phoenix WinNonlin version 8.3 (Certara, Princeton, NJ). The maximum plasma concentration (Cmax) and time to Cmax (Tmax) were the observed values. The AUClast was calculated using the log-linear trapezoidal method. AUC was extrapolated to infinity (AUCINF) by dividing the last quantifiable concentration by the terminal disposition rate constant (λz). The λz was determined from at least 3 points on the slope of the terminal phase of the concentration-time profile. The terminal half-life (T1/2) was determined by dividing 0.693 by λz. Apparent clearance (Cl/F) was calculated by dividing the dose administered by AUCINF. Apparent volume of distribution (V/F) was calculated by dividing Cl/F by λz. If the percent AUC extrapolated was >20% or the r^2 of λz was <0.85, the AUCINF, Cl/F, T1/2 and V/F were not reported.
In pilot experiments, the MTD of ART631 was determined, in NRG (host strain for our AML xenograft models) mice, to be 75 mg/kg PO (gavage) for a single dose, or 15 mg/kg/d PO x5d every 14 days. When ART631 was combined with 150 mg/kg/d VEN and/or 30 mg/kg/d SOR, as was done previously with ART838 ([20]), ART631 was tolerated at the multiple dose MTD, and no further dose adjustments were made. The PK of ART631 was assessed at the MTD.

A further data set deals with THP1. Description: alamarBlue growth inhibition, THP1. The following applies: Homo sapiens, THP-1, THP1, 48h, mean of 2 independent assays ± SD. The class given is cell-based. As for the experimental part:
as §1

For a further data set, the system named is MV4;11 AML xenografts. As to the kind of experiment: luc-labeled MV4;11 AML cell line xenograft. The following applies: MV4;11 xenograft, 15 mg/kg/d PO, 5 days on, 9 days off, 5 cycles. Format: in vivo, NRG mice. From the text: Immunodeficient NOD-Rag1^nullIL2rg^null (NRG) mice were purchased from Jackson Laboratory (Bar Harbor, ME), bred and housed at the University of Maryland Baltimore. Similar to our previous publication ([20]). mice were transplanted IV with luc-labeled human AML cell lines or cryopreserved AML patient cells on day -10, and baseline total body luminescence was quantified on day 0 by Xenogen bioluminescence imaging (Xenogen IVIS Spectrum; PerkinElmer, Waltham, MA). Mice were allocated to treatment groups so that each group had similar average day 0 luminescence, then groups were administered drugs per oral (PO; gavage). Luminescence of each mouse was assessed over time and compared with that mouse’s day 0 luminescence (fold-change AML burden). Clinical behavior, appearance, weight, and survival were also monitored.
Using our previously determined 5-day MTD SAV drug schedule (i.e. 5-day treatment cycles consisting of 15 mg/kg/d ART631 combined with 150 mg/kg/d VEN and 30 mg/kg/d SOR, followed by 9 days off drug; schematic in Figure 7A ), we assessed treatment of established human luc-labeled MV4;11 ( Figures 7B–D ) and MOLM14 AML ( Figures 8A–C ) cell line xenografts with VEN plus SOR plus ART631 in NRG mice ( Figures 7B , 8A ). […]

Take `C=CCO/N=C(/C[C@H]1O[C@@H]2O[C@@]3(C)CC[C@H]4[C@H](C)CC[C@@H]([C@H]1C)[C@@]24OO3)[C@H]1O[C@@H]2O[C@@]3(C)CC[C@H]4[C@H](C)CC[C@@H]([C@H]1C)[C@@]24OO3` [ART631]: the IC50 in the data set on 10 human AML cell lines (Homo sapiens, ML2, MOLM14, MV4;11, THP1, KG1a, U937, read-out: IC50s in cell lines with adverse risk cytogenetic and molecular features) was below 50 nM; in the data set with 10 human AML cell lines (range over the inhibited cell lines of 10 human AML cell lines, read-out: IC50 range) it was 20 to 45 nM; with HL60, 41 ± 9 nM; in the data set with THP1, 42 ± 2 nM. In the data set on 10 human AML cell lines (of 10 human AML cell lines tested), the “number of human AML cell lines whose growth was inhibited” value amounted to 9. Besides, the “tolerability when combined with VEN and/or SOR” value in data set [1] (ART631 at multiple dose MTD with 150 mg/kg/d VEN and/or 30 mg/kg/d SOR) is given as “tolerated”. The maximum tolerated dose (MTD) in data set [1] (mouse, in vivo, NRG mice, PO (gavage), single dose) amounted to 75 mg/kg. For the same molecule, in data set [1] (mouse, in vivo, NRG mice, PO x5d every 14 days, read-out: MTD, multiple dose), the maximal tolerated dose (MTD) at 5 d worked out at 15 mg/kg/day. The “antileukemic activity of monotherapy” value in the data set on MV4;11 AML xenografts is “no activity”.

The term MTD denotes the largest dose that counted as tolerated.
